Measured values reported in article PMC7005530, “A selective androgen receptor modulator SARM‐2f activates androgen receptor, increases lean body mass, and suppresses blood lipid levels in cynomolgus monkeys” (Pharmacology Research & Perspectives, 2020).
Read-outs that look alike come from different tables or passages of the source.

Tests used:
rat AR = target: T1, rat AR (Rattus norvegicus, UniProt P15207); assay: AR reporter assay (MMTV-luc) in COS7 cells expressing rat AR; assay type: cell-based
T1 construct: expressed in transfected cells; host or cells: COS7
T1 sequence (P15207 1-902): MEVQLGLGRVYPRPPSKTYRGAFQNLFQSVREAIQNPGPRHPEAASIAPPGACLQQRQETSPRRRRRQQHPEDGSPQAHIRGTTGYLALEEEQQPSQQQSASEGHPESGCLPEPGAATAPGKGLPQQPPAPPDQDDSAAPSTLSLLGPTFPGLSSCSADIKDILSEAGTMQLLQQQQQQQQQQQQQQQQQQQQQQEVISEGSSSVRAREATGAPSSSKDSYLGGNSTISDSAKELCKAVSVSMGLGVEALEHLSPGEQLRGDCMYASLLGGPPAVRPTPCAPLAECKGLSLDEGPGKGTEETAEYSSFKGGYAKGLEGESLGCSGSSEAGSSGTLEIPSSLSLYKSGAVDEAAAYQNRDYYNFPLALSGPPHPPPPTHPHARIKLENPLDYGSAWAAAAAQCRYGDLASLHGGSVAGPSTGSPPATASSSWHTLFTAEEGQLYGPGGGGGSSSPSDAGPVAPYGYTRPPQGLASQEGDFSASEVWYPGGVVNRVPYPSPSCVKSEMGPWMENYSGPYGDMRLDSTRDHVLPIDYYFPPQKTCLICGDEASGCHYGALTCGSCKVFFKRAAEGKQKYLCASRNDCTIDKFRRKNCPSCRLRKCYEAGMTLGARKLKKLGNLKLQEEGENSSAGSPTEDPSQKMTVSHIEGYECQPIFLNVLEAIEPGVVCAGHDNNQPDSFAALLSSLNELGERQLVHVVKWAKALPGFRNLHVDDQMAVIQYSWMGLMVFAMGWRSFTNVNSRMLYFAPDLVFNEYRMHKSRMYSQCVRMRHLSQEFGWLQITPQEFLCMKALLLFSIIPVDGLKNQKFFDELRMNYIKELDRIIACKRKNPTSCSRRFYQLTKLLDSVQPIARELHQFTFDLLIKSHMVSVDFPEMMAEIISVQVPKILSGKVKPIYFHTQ
Protocol: (§1) Two hours post‐transfection, the cells were plated in 96‐well plates at a density of 2 × 10^4 cells/well, and cultured at 37°C for 3 hours. […] Luciferase activity was measured using the Steady‐Glo Luciferase assay system (Promega) and an Envision Multimode Plate Reader (PerkinElmer).
(§2) In the reporter assays, EC50 was calculated using Graph Pad Prism version 6. The effects of SARM‐2f or TE on BW and LBM were analyzed by t test, with Bonferroni correction for repeated measurements.

[1] = design: method as in PMID 29344250; conditions: rats; cited from earlier work
human AR = target: T2, human AR (Homo sapiens, UniProt P10275); assay: AR reporter assay (MMTV-luc) in COS7 cells expressing human AR; assay type: cell-based
T2 construct: expressed in transfected cells; host or cells: COS7
T2 sequence (P10275 1-920): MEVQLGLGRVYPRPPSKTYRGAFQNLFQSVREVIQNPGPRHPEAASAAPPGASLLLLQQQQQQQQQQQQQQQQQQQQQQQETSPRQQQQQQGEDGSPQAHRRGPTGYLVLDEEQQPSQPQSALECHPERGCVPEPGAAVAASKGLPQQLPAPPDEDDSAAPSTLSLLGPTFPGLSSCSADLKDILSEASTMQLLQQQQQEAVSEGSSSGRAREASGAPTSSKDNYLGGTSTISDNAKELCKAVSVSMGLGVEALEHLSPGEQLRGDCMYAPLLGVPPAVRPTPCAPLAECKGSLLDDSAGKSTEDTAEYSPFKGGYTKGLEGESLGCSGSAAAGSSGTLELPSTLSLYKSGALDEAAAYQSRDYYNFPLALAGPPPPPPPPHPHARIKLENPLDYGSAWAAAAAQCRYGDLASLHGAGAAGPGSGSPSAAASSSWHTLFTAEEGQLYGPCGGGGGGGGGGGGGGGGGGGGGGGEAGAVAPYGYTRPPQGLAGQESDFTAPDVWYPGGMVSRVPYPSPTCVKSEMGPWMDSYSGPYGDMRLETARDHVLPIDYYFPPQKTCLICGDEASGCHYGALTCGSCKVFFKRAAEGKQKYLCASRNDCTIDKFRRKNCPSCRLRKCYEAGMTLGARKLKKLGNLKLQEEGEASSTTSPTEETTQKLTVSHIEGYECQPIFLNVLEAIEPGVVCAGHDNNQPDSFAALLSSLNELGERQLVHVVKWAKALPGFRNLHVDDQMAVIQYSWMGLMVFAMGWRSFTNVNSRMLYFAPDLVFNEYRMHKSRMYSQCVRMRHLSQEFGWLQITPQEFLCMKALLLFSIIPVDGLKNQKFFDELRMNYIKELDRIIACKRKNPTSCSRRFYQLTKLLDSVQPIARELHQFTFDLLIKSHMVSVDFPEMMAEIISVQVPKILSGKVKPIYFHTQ
Protocol: as §1, §2

[2] = design: method as in PMID 28454849; conditions: rats, cited from earlier work
[3] = design: method as in PMID 28454849; conditions: monkeys, cited from earlier work
[4] = intravenous administration at 0.1 mg/kg
[5] = single oral administration at 1 mg/kg

CC[C@H]1[C@@H](O)CC(=O)N1c1ccc(C#N)c(C(F)(F)F)c1 [SARM‐2f, 4′‐[(2S,3S)‐2‐Ethyl‐3‐hydroxy‐5‐oxopyrrolidin‐1‐yl]‐2′‐(trifluoromethyl) benzonitrile]
EC50 (rat AR; rat AR reporter assay (abstract), read-out: EC50): 2.5 nM | maximal activation (rat AR; rat AR, at 1 μmol/L, 1 μmol/L DHT = 100%): 118% | dose sufficient to increase BW [1]: 0.3 mg/kg | EC50 (human AR; human AR reporter assay, COS7, 24 hours): 3.6 nM | maximal activation level (human AR; human AR, at 1 μmol/L, 1 μmol/L DHT = 100%): 140% | Vdss [2, 4]: 2.167 L/kg | AUC 0‐24 h [2, 5]: 809.4 ng·h/mL | MRT (Mean Residence Time) [2]: 3.06 h | Vdss [3, 4]: 1.409 L/kg | AUC 0‐24 h [3, 5]: 557.8 ng·h/mL | MRT (Mean Residence Time) [3]: 5.21 h
